Laboratory results from ChEMBL document CHEMBL4229348, “Structure-activity relationship studies of ultra-short peptides with potent activities against fluconazole-resistant Candida albicans” (Eur J Med Chem, 2018).
In brackets after ≈: the same amount, converted by molar mass. Square brackets hold non-standard residues; d marks the D form. Peptide text beside a SMILES is read from it. Lys(Me2) = CN(C)CCCC[C@H](N)C(=O)O; Ala(cPr) = N[C@@H](CC1CC1)C(=O)O; tBuAla = CC(C)(C)C[C@H](N)C(=O)O; Dap = NC[C@H](N)C(=O)O

What was measured:
[1] = Retention time of the compound at 0.4 mM by HPLC analysis; assay type: physicochemical; conditions: 400 µM
[2] = test system: Candida albicans; assay: Antifungal activity against fluconazole-resistant Candida albicans ATCC 64550 after overnight incubation by CLSI broth microdilution method; assay type: functional

Molecule	Retention_time [1] [min]	MIC [2] [µM]
CC(C)C[C@@H](N)C(=O)N[C@H](CCCCN)C(=O)N[C@H](CC(C)C)C(=O)N[C@H](CCCCN)C(=O)N[C@H](CC(C)C)C(=O)N[C@H](CCCCN)C(=O)N[C@H](CC(C)C)C(=O)N[C@H](CCCCN)C(N)=O	13.8	3.13 (≈ 3.07 µg/mL)
CC(C)C[C@H](NC(=O)[C@H](CCCCN)NC(=O)[C@H](CC(C)C)NC(=O)[C@H](CCCCN)NC(=O)[C@H](CC(C)C)NC(=O)[C@H](CCCCN)NC(=O)[C@@H](N)CC(C)C)C(=O)N[C@@H](CCCCN)C(N)=O	13.8	3.13 (≈ 3.07 µg/mL)
CC[C@H](C)[C@H](N)C(=O)N[C@@H](CN)C(=O)N[C@H](C(=O)N[C@@H](CN)C(=O)N[C@H](C(=O)N[C@@H](CN)C(=O)N[C@H](C(=O)N[C@@H](CN)C(=O)N[C@H](C(N)=O)[C@@H](C)CC)[C@@H](C)CC)[C@@H](C)CC)[C@@H](C)CC (H-I[Dap]I[Dap]I[Dap]I[Dap]I-NH2)	13.7	25 (≈ 23.2 µg/mL)
CC[C@H](C)[C@H](N)C(=O)N[C@@H](CCCCN(C)C)C(=O)N[C@H](C(=O)N[C@@H](CCCCN(C)C)C(=O)N[C@H](C(=O)N[C@@H](CCCCN(C)C)C(=O)N[C@H](C(=O)N[C@@H](CCCCN(C)C)C(N)=O)[C@@H](C)CC)[C@@H](C)CC)[C@@H](C)CC (H-I[Lys(Me2)]I[Lys(Me2)]I[Lys(Me2)]I[Lys(Me2)]-NH2)	14	100 (≈ 109 µg/mL)
CC(C)C[C@H](NC(=O)[C@H](CCCCN)NC(=O)[C@@H](N)CC(C)C)C(=O)N[C@@H](CCCCN)C(N)=O (H-LKLK-NH2)	11	> 100
CC(C)C[C@H](NC(=O)[C@H](CCCCN)NC(=O)[C@@H](N)CC(C)C)C(N)=O (H-Leu-Lys-Leu-NH2)	12.1	> 100
CC(C)C[C@H](N)C(=O)N[C@@H](CCCCN)C(N)=O (H-Leu-Lys-NH2)	2.1	> 100
CC(C)C[C@H](NC(=O)[C@@H](N)CCCCN)C(=O)N[C@@H](CCCCN)C(N)=O (H-Lys-Leu-Lys-NH2)	2.4	> 100
NCCCC[C@H](NC(=O)[C@H](CC1CC1)NC(=O)[C@H](CCCCN)NC(=O)[C@H](CC1CC1)NC(=O)[C@H](CCCCN)NC(=O)[C@H](CC1CC1)NC(=O)[C@H](CCCCN)NC(=O)[C@@H](N)CC1CC1)C(N)=O (H-[Ala(cPr)]K[Ala(cPr)]K[Ala(cPr)]K[Ala(cPr)]K-NH2)	12.8	6.25 (≈ 6.09 µg/mL)
CC(C)(C)C[C@H](NC(=O)[C@H](CCCCN)NC(=O)[C@H](CC(C)(C)C)NC(=O)[C@H](CCCCN)NC(=O)[C@H](CC(C)(C)C)NC(=O)[C@H](CCCCN)NC(=O)[C@@H](N)CC(C)(C)C)C(=O)N[C@@H](CCCCN)C(N)=O (H-[tBuAla]K[tBuAla]K[tBuAla]K[tBuAla]K-NH2)	15.6	3.13 (≈ 3.25 µg/mL)
CC[C@H](C)[C@H](N)C(=O)N[C@@H](CCN)C(=O)N[C@H](C(=O)N[C@@H](CCN)C(=O)N[C@H](C(=O)N[C@@H](CCN)C(=O)N[C@H](C(=O)N[C@@H](CCN)C(=O)N[C@H](C(N)=O)[C@@H](C)CC)[C@@H](C)CC)[C@@H](C)CC)[C@@H](C)CC (HELM PEPTIDE1{I.[Dab].I.[Dab].I.[Dab].I.[Dab].I.[am]}$$$$V2.0)	13.5	6.25 (≈ 6.15 µg/mL)
CC[C@H](C)[C@H](N)C(=O)N[C@@H](CCCN)C(=O)N[C@H](C(=O)N[C@@H](CCCN)C(=O)N[C@H](C(=O)N[C@@H](CCCN)C(=O)N[C@H](C(=O)N[C@@H](CCCN)C(=O)N[C@H](C(N)=O)[C@@H](C)CC)[C@@H](C)CC)[C@@H](C)CC)[C@@H](C)CC (HELM PEPTIDE1{I.[Orn].I.[Orn].I.[Orn].I.[Orn].I.[am]}$$$$V2.0)	13.2	6.25 (≈ 6.5 µg/mL)
CC[C@H](NC(=O)[C@H](CCCCN)NC(=O)[C@H](CC)NC(=O)[C@H](CCCCN)NC(=O)[C@H](CC)NC(=O)[C@H](CCCCN)NC(=O)[C@@H](N)CC)C(=O)N[C@@H](CCCCN)C(N)=O (HELM PEPTIDE1{[Abu].K.[Abu].K.[Abu].K.[Abu].K.[am]}$$$$V2.0)	6	> 100
H-ILRWPWWPWRRK-NH2 [OMIGANAN]	–	50
